Where two headings read alike, the source gives them in different places. A value given as a limit tells only on which side of the number the result lay.

Here are results for two compounds from publication PMC3305890, “Synthesis and pharmacological characterization of potent, selective, and orally bioavailable isoindoline class dipeptidyl peptidase IV inhibitors” (Organic and Medicinal Chemistry Letters, 2011).

One data set deals with blood glucose. Briefly: Oral glucose tolerance test (OGTT), blood glucose. Format: in vivo. Particulars: Wistar/ST rats, 1 mg/kg oral, glucose challenge 1 g/kg. The method, then:
(§1) After 30 min (t = 0), oral glucose challenges (1 g/kg) were conducted and then plasma DPP-IV activities and blood glucose levels were monitored at various intervals over a 2 h period.
(§2) All procedures were approved by the Sanwa Kagaku Kenkyusho Institutional Animal Care and Use Committee. 7-week old Wistar/ST rats were housed under standard conditions and allowed free access to water and a commercial diet for at least 5 days. […] After an oral glucose challenge (5 mL/kg of an aqueous solution of 20% glucose), blood samples were collected from the tail vein of each animal into heparin-containing tubes at serial time points for 2 h. Plasma was prepared immediately, frozen, and stored at -20°C prior to analysis.
(§3) Plasma glucose and insulin were determined with a glucometer (Glutest Pro; SKK, Japan) and a rat insulin ELISA kit (Shibayagi, Japan), respectively, according to the manufacturer's instructions. Statistical analyses were performed using Microsoft Excel. Individual comparisons among more than two experimental groups were assessed using ANOVA, with Fisher's Least Significant Difference post hoc test. Differences were considered significant at P values < 0.05. Analysis of dose-response data was performed by Dunnett's test.

The next data set deals with CYP3A. Briefly: CYP3A enzyme induction in rat hepatocytes (testosterone 6β-hydroxylation). Particulars: rat hepatocytes, 1, 10, 50 μM, 2 days. The data set is classed as in vitro ADME. How it is done:
Enzyme induction was evaluated as follows: Hepatocytes isolated from male SD rats were maintained in culture for 1 day before treatment with the test compound or P-450 inducers. The cells were treated with the test compound (1, 10, 50 μM), β-naphthoflavone (10 μM, CYP1A inducer), phenobarbital (50 μM, CYP2B inducer), dexamethasone (10 μM, CYP3A inducer), or vehicle (0.1% DMSO final volume; used as negative control) for 2 days.
Induction of CYP1A, CYP2B, and CYP3A enzymes was determined based on measurements of 7-ethoxyresorufin O-dealkylation, 7-pentoxyresorufin O-dealkylation, and testosterone 6β-hydroxylation, respectively. Assays were started by the addition of Krebs-Henseleit buffer containing 8 μM 7-ethoxyresorufin, 10 μM 7-pentoxyresorufin, or 250 μM testosterone at a volume of 100 μL per well. After incubation at 37°C for 30 min, aliquots were removed and analyzed by fluorometry (an excitation wavelength of 538 nm and an emission wavelength of 590 nm) or LC/MS/MS to determine the quantities of metabolites formed. Any test compound causing a dose-dependent change equal to or greater than 10% of the positive control (see formula below) was considered an enzyme inducer.
% positive control=(activity of test - compound treated cells - activity of negative control)/(activity of positive control - activity of negative control)×100

Data set [1] can be described thus: Metabolic stability in human liver microsomes. The note with it: read-out: CL'int Human (converted). Format: in vitro ADME. How it is done: (§4) The incubation mixture containing 0.25 mg of rat or human liver microsomes was preincubated with an NADPH-generating system for 5 min at 37°C. The reaction was started by the addition of 5 μL of a DMSO solution containing the test compound (5 μM). At t = 0 and at two additional time points between 0 and 30 min, aliquots (100 μL) were removed and added to termination mixtures (CH3CN). Proteins were sedimented by centrifugation and an aliquot of the supernatant was analyzed by LC/MS/MS.
(§5) In determinations of the in vitrot1/2, the analyte/ISTD peak area ratio was converted to percentage of drug remaining by assigning a value of 100% to the peak area ratio at t = 0. The slope of the regression line fitted to the log (percentage remaining) versus incubation time relationship (-k) was used in the conversion of raw data to the in vitrot1/2 value. In vitro CLint was calculated using the following formula.
(§6) CLint=0.693/Invitro t1/2×mL incubation/mg microsomes×45 mg microsomes/mg liver×[…] (b.w.)

Data set [2] can be described thus: Pharmacokinetics (PK) in SD rats. Format: in vivo, Sprague-Dawley (SD) rats. Particulars: for AUC(0-t): read-out: AUC 0-9 h. How it is done: Sprague-Dawley (SD) rats were housed under standard conditions and allowed free access to water and a commercial diet. On the day before the experiment, rats were fasted overnight and for the first 12 h of the experiment. […] Blood samples were collected from the jugular vein of each animal with a heparinized syringe under diethyl ether anesthesia at serial time points for 24 h after drug administration. Plasma was obtained by centrifugation at 4°C and stored at -70°C until analysis. Protein precipitation was carried out by the addition of the internal standard solution (70% CH3CN with 0.2% acetic acid) to samples. The tubes underwent vigorous shaking and centrifugation for 5 min; then the supernatant was subjected to LC/MS/MS analysis. Peak areas were determined using Xcalibur® software (Thermo Electron Corporation, UK) and AUC values were calculated by the trapezoidal rule.

The next data set addresses T1, plasma DPP-IV (Rattus norvegicus, UniProt P14740).
T1 construct: from tissue; host or cells: plasma of Wistar/ST rats
Briefly: Inhibition of rat plasma DPP-IV ex vivo during OGTT. Particulars: for inhibition at 1 mg/kg: 1 mg/kg oral. The data set is classed as in vivo, Wistar/ST rats. How it is done: After 30 min (t = 0), oral glucose challenges (1 g/kg) were conducted and then plasma DPP-IV activities and blood glucose levels were monitored at various intervals over a 2 h period. […].
as §2
Plasma DPP-IV activity was determined as described above. A 20 μL plasma sample was mixed with 5 μL of reaction buffer (140 mM NaCl, and 10 mM KCl, 25 mM Tris-HCl, pH 7.4, 1% bovine serum albumin) and 10 μL of buffer containing 60 μM H-Gly-Pro-AMC. After incubation at room temperature for 30 min, the reaction was stopped by the addition of 20 μL of 25% aqueous acetic acid and fluorescence was measured using an excitation wavelength of 360 nm and an emission wavelength of 460 nm.

The test system of another data set is plasma insulin. Briefly: Plasma insulin after glucose challenge in OGTT. The data set is classed as in vivo. Particulars: Wistar/ST rats, oral 4b, 10 min after glucose challenge. How it is done: as §1, §2, §3
Data set [3] can be described thus: Metabolic stability in rat liver microsomes. Particulars: 5 μM. The data set is classed as in vitro ADME. How it is done: as §4, §5, §6
For a further data set, the target named is T2, human plasma DPP-IV (Homo sapiens, UniProt P27487).
T2 construct: from tissue; host or cells: human plasma
Briefly: IC50 with respect to human plasma DPP-IV (separate experiments). Format: biochemical. Particulars: separate experiments (footnote a). From the text:
Table 1 Inhibition of DPP-IV, -8 and -9 activity by 1,3-dihydroisoindoline derivatives 4, their metabolic clearance by rat and human and their enzyme-inducing (CYP1A, CYP2B, and CYP3A) capacity | column: IC50 (nM) / DPP-IV

Data set [4] in a line: Further PK studies: metabolite identification by LC-MS, in vivo conversion of 4b into 4l. Particulars: rats, after dosing of 4b. How it is done: Therefore, further PK studies were conducted. A major metabolite was detected by LC-MS analysis and its structure was determined by comparison of the LC retention time and MS/MS fragmentation pattern with synthetic standards.
The mark [5] stands for this setting: Sprague-Dawley, rat, plasma, po 3 mg/kg.
[6] abbreviates: Sprague-Dawley, rat, plasma, po 10 mg/kg.

T1 sequence (P14740 37-767 limits assumed): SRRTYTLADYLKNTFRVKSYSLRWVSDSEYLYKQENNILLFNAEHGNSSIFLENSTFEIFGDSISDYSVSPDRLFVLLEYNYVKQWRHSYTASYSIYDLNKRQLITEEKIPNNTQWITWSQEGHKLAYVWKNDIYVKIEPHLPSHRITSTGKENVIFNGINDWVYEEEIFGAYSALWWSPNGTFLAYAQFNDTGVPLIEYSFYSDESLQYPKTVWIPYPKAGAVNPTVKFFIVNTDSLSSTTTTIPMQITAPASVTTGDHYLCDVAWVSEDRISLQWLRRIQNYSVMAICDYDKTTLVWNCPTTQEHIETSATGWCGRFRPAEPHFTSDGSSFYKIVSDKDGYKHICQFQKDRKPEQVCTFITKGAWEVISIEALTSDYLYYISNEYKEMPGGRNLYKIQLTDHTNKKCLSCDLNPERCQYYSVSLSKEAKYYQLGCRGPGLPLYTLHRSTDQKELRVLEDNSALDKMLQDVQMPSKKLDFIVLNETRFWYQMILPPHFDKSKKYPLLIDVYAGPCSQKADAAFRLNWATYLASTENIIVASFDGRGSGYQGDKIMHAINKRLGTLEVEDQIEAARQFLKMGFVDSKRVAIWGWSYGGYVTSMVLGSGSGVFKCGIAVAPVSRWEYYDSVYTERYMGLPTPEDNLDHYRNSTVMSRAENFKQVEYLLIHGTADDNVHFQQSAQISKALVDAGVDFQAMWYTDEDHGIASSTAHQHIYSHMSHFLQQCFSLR
T2 sequence (P27487 39-766 limits assumed): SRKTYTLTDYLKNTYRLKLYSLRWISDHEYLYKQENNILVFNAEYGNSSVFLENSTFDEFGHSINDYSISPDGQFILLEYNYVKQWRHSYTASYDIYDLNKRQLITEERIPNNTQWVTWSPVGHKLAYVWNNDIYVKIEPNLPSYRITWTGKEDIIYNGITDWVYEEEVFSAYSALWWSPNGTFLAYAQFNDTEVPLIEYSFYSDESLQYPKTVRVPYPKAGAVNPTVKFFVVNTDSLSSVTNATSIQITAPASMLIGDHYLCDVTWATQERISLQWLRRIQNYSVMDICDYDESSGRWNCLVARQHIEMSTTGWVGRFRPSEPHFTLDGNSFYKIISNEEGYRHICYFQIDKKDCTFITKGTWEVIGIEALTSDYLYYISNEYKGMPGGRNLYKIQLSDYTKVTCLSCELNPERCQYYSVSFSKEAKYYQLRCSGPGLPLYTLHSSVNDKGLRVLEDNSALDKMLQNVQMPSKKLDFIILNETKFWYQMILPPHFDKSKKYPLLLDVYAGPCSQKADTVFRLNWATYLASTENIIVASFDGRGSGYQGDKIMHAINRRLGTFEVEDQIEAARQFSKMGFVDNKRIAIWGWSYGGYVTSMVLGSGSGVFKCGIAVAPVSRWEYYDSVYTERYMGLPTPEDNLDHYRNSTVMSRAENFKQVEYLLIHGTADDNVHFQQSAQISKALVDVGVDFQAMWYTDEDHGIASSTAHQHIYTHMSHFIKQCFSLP

As to `Cc1ccc2c(c1)CN(C(=O)CC(C)(C)NCC(=O)N1CCC[C@H]1C#N)C2` [Compound 4b, (S)-1-(2-(2-Methyl-4-(5-methylisoindolin-2-yl)-4-oxobutan-2-ylamino)acetyl)pyrrolidine-2-carbonitrile], the “reduction of glucose levels in OGTT” value in the data set on blood glucose turned out to be 18%. Moreover, in the data set on CYP3A, the “Enzyme induction (rat) CYP3A” value is listed as “- (Any test compound causing a dose-dependent change equal to or greater than 10% of the positive control (see formula below) was considered an enzyme inducer)”. In addition, in [1], the CLint scaled at 5 μM was 1.67 mL/min/kg. The AUC(0-t) in [2] (Sprague-Dawley, rat, plasma, iv 1 mg/kg) amounted to 39 ng·h/mL; in data set [2] (setting [5]), 33 ng·h/mL; in data set [2] (setting [6]), 156 ng·h/mL. In [2] (Sprague-Dawley, rat, plasma, iv 1 mg/kg, read-out: CL p (converted)), the clearance is 437 mL/min/kg. For the same compound, in data set [2] (Sprague-Dawley, rat, plasma, iv 1 mg/kg, read-out: Vd ss), the Vd is 8.28 L/kg. Moreover, the Cmax in [2] (setting [5]) amounted to 37 ng/mL; in data set [2] (setting [6]), 229 ng/mL. Besides, the Tmax in data set [2] (setting [5]) and in [2] (setting [6]) was 15 min each time. The “t 1/2α” value worked out at 3.72 min in data set [2] (iv 1 mg/kg, first t 1/2 column); 16.2 min in data set [2] (iv 1 mg/kg, second t 1/2); 82.2 min in [2] (po 3 mg/kg, second t 1/2); 90 min in data set [2] (po 10 mg/kg, second t 1/2). Moreover, the BA in data set [2] (po 3 mg/kg) is given as 27.7%; in [2] (po 10 mg/kg), 39.9%. At plasma DPP-IV (3-10 mg/kg doses, for several hours, estimated from the PK profiles), the “inhibition of DPP-IV estimated from the PK profiles” value is greater than 50%. The inhibition at 0.1 mg/kg against plasma DPP-IV (rat, Wistar/ST rats, 0.1 mg/kg oral) was 30%. For the same compound, the inhibition at 1 mg/kg was greater than 90% at plasma DPP-IV (rat, Wistar/ST rats, over 2 h period after glucose challenge, read-out: inhibition of plasma DPP-IV activity maintained throughout the study) and 95% on plasma DPP-IV (rat, Wistar/ST rats, within 30 min post-dose, read-out: inhibition of plasma DPP-IV activity). In the data set on plasma insulin, the “insulin levels at 10 min post-challenge” value was “increased”. For the same compound, the “CL'int Rat” value in data set [3] stood at 38.3 mL/min/kg.

`CC(C)(CC(=O)N1Cc2ccc(CO)cc2C1)NCC(=O)N1CCC[C@H]1C#N` [Compound 4l, (S)-1-(2-(4-(5-(Hydroxymethyl)isoindolin-2-yl)-2-methyl-4-oxobutan-2-ylamino)acetyl)pyrrolidine-2-carbonitrile] gave an IC50 against human plasma DPP-IV of 1.9 nM. Besides, the “in vivo conversion (of 4b into metabolite 4l)” value in data set [4] turned out to be 60%.
